Assay results: the NIST ThermoML archive (doi:10.1016/j.jct.2018.09.029)
± gives the expanded uncertainty stated by the source.

Assay: Boiling temperature at pressure P
Conditions: 82.6 kPa; Liquid; Ebulliometric method (Recirculating still)

- Boiling temperature at pressure P: 94.41 ± 0.63 °C
Structure (SMILES): O [water]
